Measured values from PMC3971658 (The Journal of General Physiology, 2014).

Columns and labels:
[1] = test system: R-type current, rat DRG neurons; format: cell-based
[2] = test system: Rabbit Cav2.1; format: cell-based; details: 50 µM
[3] = test system: Human Cav2.1; format: cell-based; details: 50 µM
[4] = test system: c-Src / human Cav2.1 channel and GABABR; format: cell-based
[5] = test system: Human Cav2.3c; format: cell-based; details: 50 µM
[6] = test system: human Cav2.3c (α1E-c) channel alone; format: cell-based; details: 50 µM
[7] = test system: human Cav2.1 (α1A-2) channel alone; format: cell-based; details: 50 µM
[8] = test system: human Cav2.3c channel and GABABR
[9] = test system: R-type current, thalamocortical neurons; details: cited from earlier work
[10] = test system: Human Cav2.3d; format: cell-based; details: 50 µM

## NCC(CC(=O)O)c1ccc(Cl)cc1 (stereo not shown) [Baclofen, baclofen]
[1]
  R-type current inhibition: R-type current inhibition by baclofen
[2]
  IBa inhibition: ^#50.0 ± 5.0 (8) %
[3]
  IBa inhibition: 44.4 ± 1.9 (9) %
[4]
  baclofen inhibition of IBa with wild-type c-Src overexpression or pp60c-Src peptide: did not affect baclofen inhibition of IBa
[5]
  IBa inhibition: 44.0 ± 3.0 (10) %
[6]
  IBa inhibition: 0 (6) %
[7]
  IBa inhibition: 0 (5) %
[8]
  V0.5,act: −3.44 ± 0.67 mV
[9]
  R-type current modulation: R-type current modulation by baclofen has been demonstrated
[10]
  IBa inhibition: 33.1 ± 1.8 (8) %
